Results reported in US20250360167A1 (Keryx Biopharmaceuticals, Inc., priority 2013, published 2025).

Assays:
hemoglobin = assay: Phase 2 trial (Example 2): hemoglobin; assay type: in vivo, human; conditions: ITT group, n = 72
Source text: The key secondary endpoints of the study were the mean changes in ferritin, hemoglobin and FGF-23 from baseline to the end of the 12-week treatment period versus placebo in the ITT group.

[1] = Dissolution testing, USP <711> vessels, Apparatus II; assay type: physicochemical; conditions: relative to standard = 100
ferritin = assay: Phase 3 trial (Example 1): ferritin; assay type: in vivo, human; parameters: Ferritin, Mean / Ferritin, Median / Ferritin, Change from Baseline, Mean / Ferritin, Change from Baseline, Median / Ferritin, LS Mean: unit not given here; conditions: for Ferritin, Mean / Ferritin, Median / Ferritin, LS Mean / Ferritin, Change from Baseline, Mean / Ferritin, Change from Baseline, Median / Ferritin, Treatment Differences, LS Mean (KRX-0502) − LS Mean (control), (SE): Table 15
Source text: Iron studies including serum iron, ferritin, TSAT, and total iron-binding capacity were done at Screening (Visit 0); at the Randomization Visit (Visit 4); at Visits 7 (Week 4), 9 (Week 8), 11 (Week 12), 12 (Week 16), 13 (Week 20), 14 (Week 24), 15 (Week 28), 16 (Week 32), 17 (Week 36), 18 (Week 40), 19 (Week 44), 20 (Week 48), and 21 (Week 52) of the 52-week Safety Assessment Period; and at Visit 25 (Week 56) of the Efficacy Assessment Period.
Change from baseline in ferritin at Week 52 as compared to baseline (Visit 4). This variable will be analyzed using LOCF methodology. ANCOVA will be employed. The model will include treatment (fixed effect), and baseline (covariate). A sensitivity analysis will be performed using MMRM method.
• 1. Change in serum calcium concentration at Weeks 12, 24, 36, 48, and 52 as compared to baseline (Visit 4). This variable will be analyzed using LOCF methodology. ANCOVA will be employed. The model will include treatment (fixed effect), and baseline (covariate). • 2. Change in ferritin, and TSAT at Weeks 12, 24, 36 and 48 as compared to baseline (Visit 4). This variable will be analyzed using LOCF methodology. ANCOVA will be employed. The model will include treatment (fixed effect), and baseline (covariate). • 3. Change in serum iron and TIBC at Weeks 12, 24, 36, 48, and 52 as compared to baseline (Visit 4). This variable will be analyzed using LOCF methodology. ANCOVA will be employed. The model will include treatment (fixed effect), and baseline (covariate). • 4. Change in Ca x P product at Weeks 12, 24, 36, 48, and 52 as compared to baseline (Visit 4). This variable will be analyzed using LOCF methodology. ANCOVA will be employed. The model will include treatment (fixed effect), and baseline (covariate). • 5. Change in iPTH at Weeks 12, 36, 52, and 56 as compared to baseline (Visit 4). This variable will be analyzed using LOCF methodology. ANCOVA will be employed. The model will include treatment (fixed effect), and baseline (covariate). • 6. Change in serum […], vitamin A, vitamin B-12, vitamin E, vitamin K and folic acid at Weeks 12, 36, and 52 as compared to baseline (Visit 4). This variable will be analyzed using LOCF methodology. ANCOVA will be employed. The model will include treatment (fixed effect), and baseline (covariate). • 7. Change in serum bicarbonate concentration at Weeks 12, 36, and 52 as compared to baseline (Visit 4). This variable will be analyzed using LOCF methodology. ANCOVA will be employed. The model will include treatment (fixed effect), and baseline (covariate). • 8. Change in IV iron intake at Weeks 12, 24, 36, 48, and 52 as compared to baseline (Visit 4). This variable will be analyzed using LOCF methodology. ANCOVA will be employed. The model will include treatment (fixed effect), and baseline (covariate). • 9. Change in the use of EPO (ESA) administered at Weeks 12, 24, 36, 48, and 52 as compared to baseline (Visit 4). This variable will be analyzed using LOCF methodology. ANCOVA will be employed. The model will include treatment (fixed effect), and baseline (covariate). • 10. Change in the use of Vitamin D supplementation (and its analogs) and Sensipar (cinacalcet) at Weeks 12, 24, 36, 48, and 52 as compared to baseline (Visit 4). This variable will be analyzed using LOCF methodology. ANCOVA will be employed. The model will include treatment (fixed effect), and baseline (covariate). • 11. Change in LDL, HDL, and triglycerides at Weeks 12, 36, and 52 as compared to baseline (Visit 4). This variable will be analyzed using LOCF methodology. ANCOVA will be employed. The model will include treatment (fixed effect), and baseline (covariate).

[2] = Day 0 Baseline, Safety Assessment Period

Substance: iron (+3), x (1, 2, 3-propanetricarboxylic acid, 2-hydroxy-), y (H2O) [KRX-0502]
- Mean Hemoglobin, Baseline (hemoglobin; Baseline): 10.5 g/dL
- Mean Hemoglobin, End of Treatment (Week 12) (hemoglobin; Week 12, last observation carried forward): 11.0 g/dL
- Dissolution testing, percentage dissolved ([1]; 5 minutes): ≥ 91%
- Dissolution testing, percentage dissolved ([1]; 15 minutes): ≥ 96%
- Dissolution testing, percentage dissolved ([1]; 30 minutes): ≥ 96%
- Dissolution testing, percentage dissolved ([1]; 60 minutes): ≥ 95%
- Mean Ferritin, LS Mean Difference from Active Control Group at Week 52 (ferritin; ANCOVA, Table C): 286 ng/mL
- Mean Ferritin (ferritin; Baseline (Day 0), Table C): 595 ng/mL
- Ferritin, Mean (ferritin; [2]): 595.00
- Ferritin, Median (ferritin; [2]): 587.00
- Mean Ferritin, Change from Baseline at Week 52 (ferritin; Table C): 302 ng/mL
- Ferritin, LS Mean (ferritin; Week 12, ANCOVA): 757.75
- Mean Ferritin (ferritin; Week 12, LOCF, Table C): 751 ng/mL
- Ferritin, Change from Baseline, Mean (ferritin; Week 12): 158.88
- Ferritin, Change from Baseline, Median (ferritin; Week 12): 123.00
- Ferritin, Mean (ferritin; Week 12): 751.19
- Ferritin, Median (ferritin; Week 12): 718.00
- Ferritin, Treatment Differences, LS Mean (KRX-0502) − LS Mean (control), (SE) (ferritin; Week 12): 112.95 (29.36)
- Ferritin, LS Mean (ferritin; Week 24, ANCOVA): 852.52
- Mean Ferritin (ferritin; Week 24, LOCF, Table C): 847 ng/mL
- Ferritin, Change from Baseline, Mean (ferritin; Week 24): 252.49
- Ferritin, Change from Baseline, Median (ferritin; Week 24): 220.00
- Ferritin, Mean (ferritin; Week 24): 846.90
- Ferritin, Median (ferritin; Week 24): 830.00
- Ferritin, Treatment Differences, LS Mean (KRX-0502) − LS Mean (control), (SE) (ferritin; Week 24): 204.43 (32.84)
- Ferritin, LS Mean (ferritin; Week 36, ANCOVA): 868.11
- Mean Ferritin (ferritin; Week 36, LOCF, Table C): 863 ng/mL
- Ferritin, Change from Baseline, Mean (ferritin; Week 36): 268.77
- Ferritin, Change from Baseline, Median (ferritin; Week 36): 223.00
- Ferritin, Mean (ferritin; Week 36): 863.18
- Ferritin, Median (ferritin; Week 36): 818.00
- Ferritin, Treatment Differences, LS Mean (KRX-0502) − LS Mean (control), (SE) (ferritin; Week 36): 241.24 (38.27)
- Ferritin, LS Mean (ferritin; Week 48, ANCOVA): 887.41
- Mean Ferritin (ferritin; Week 48, LOCF, Table C): 882 ng/mL
- Ferritin, Change from Baseline, Mean (ferritin; Week 48): 287.69
- Ferritin, Change from Baseline, Median (ferritin; Week 48): 233.00
- Ferritin, Mean (ferritin; Week 48): 882.10
- Ferritin, Median (ferritin; Week 48): 850.00
- Ferritin, Treatment Differences, LS Mean (KRX-0502) − LS Mean (control), (SE) (ferritin; Week 48): 270.56 (39.85)
- Ferritin, LS Mean (ferritin; Week 52, ANCOVA): 901.95
- Mean Ferritin (ferritin; Week 52, LOCF, Table C): 897 ng/mL
- Ferritin, Change from Baseline, Mean (ferritin; Week 52): 302.11
- Ferritin, Change from Baseline, Median (ferritin; Week 52): 224.00
- Ferritin, Mean (ferritin; Week 52): 897.12
- Ferritin, Median (ferritin; Week 52): 858.00
- Ferritin, Treatment Differences, LS Mean (KRX-0502) − LS Mean (control), (SE) (ferritin; Week 52): 285.65 (42.76)
- Mean Ferritin, % Change from Baseline (ferritin; Week 52, Table C): 50.8%
